These results are taken from patent publication US9375000B2, “Pesticidal arylpyrrolidines” (Bayer Intellectual Property GmbH, priority 2011, dated 2016).

Common to all, as to assay type: in vivo
Data set [1] deals with Two-Spotted Spider Mite (Tetranychus urticae). The experiment in a line: Two-spotted spider mite (Tetranychus urticae) spray test on kidney bean. The note with it: after 7 days. The procedure, abridged:
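Kidney bean plants at the two-leaf stage carried 50-100 adult mites and were sprayed one day later with compound in DMF/polyoxyethylene alkyl phenyl ether diluted in water. Ammonium salt and penetration enhancer at 1000 ppm were added if needed. Acaricidal activity (% mites killed) was scored after 7 days in a greenhouse.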

The subject of data set [2] is Cucurbit Leaf Beetle (Aulacophora femoralis). Briefly: Cucurbit leaf beetle (Aulacophora femoralis) cucumber leaf dip test. The note with it: after 7 days. The essentials: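 Cucumber leaves dipped in compound formulated with DMF and polyoxyethylene alkyl phenyl ether, diluted in water, with ammonium salt or ammonium salt plus penetration enhancer at 1000 ppm added if necessary; dried leaves placed on sterilized soil with five second-instar larvae. Kept at 25° C; larval mortality counted after 7 days.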

Data set [3] deals with Larvae of Spodoptera litura. The experiment in a line: Larvae of Spodoptera litura, method using artificial feeds. The note with it: artificial feed, after 7 days. The procedure, abridged:
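Compound formulated in dimethylformamide with polyoxyethylene alkyl phenyl ether emulsifier, water-diluted and poured onto artificial diet. Five 3rd-instar Spodoptera litura larvae per cup, held at 25° C and 50-60% humidity. Mortality after 7 days expressed as pesticidal ratio.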

For data set [4], the system named is Thrips palmi. The experiment in a line: Thrips palmi spray test (THRIPL). The note with it: after 6 days. The procedure, abridged:
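Cucumber seedlings sprayed with compound formulated in DMF/polyoxyethylene alkyl phenyl ether and diluted in water, ammonium salt ± penetration enhancer at 1000 ppm added if needed. About 100 T. palmi eggs attached, plants held caged at 100% humidity, 23 °C. Percent activity scored from feeding damage after 6 days, 100 = no damage, 0 = as untreated.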

For data set [5], the system named is adult engorged female Boophilus microplus ticks. Briefly: Test against Boophilus microplus (dip). The note with it: application rate 100 ppm; dip; after 7 days. The method, then: (§1) Solvent: dimethyl sulfoxide
To produce a suitable preparation of active compound, 10 mg of active compound are dissolved in 0.5 ml solvent, and the concentrate is diluted with water to the desired concentration. Eight to ten adult engorged female Boophilus microplus ticks are placed in perforated plastic beakers and immersed in aqueous compound solution for one minute. Ticks are transferred to a filter paper in a plastic tray. Egg deposition of fertile eggs is monitored after. After 7 days mortality in % is determined. 100% means that all the ticks have been killed; 0% means that none of the ticks have been killed.

The test system of data set [6] is Tobacco Cutworm (Spodoptera litura) Larvae. Briefly: Tobacco cutworm (Spodoptera litura) larvae, sweet potato leaf dip test. To be noted: dead larvae after 7 days. The method, then:
(§2) Unless not mentioned otherwise, the test solutions were prepared as follows:
(§3) Solvent: 3 parts by weight Dimethylformamide
(§4) Emulsifier: 1 part by weight Polyoxyethylene alkyl phenyl ether
(§5) In order to make an appropriate formulation of an active compound, 1 part by weight of the active compound is mixed with the above mentioned amount of solvent and emulsifier and the mixture is diluted with water to a prescribed concentration. Ammonium salt or ammonium salt and penetration enhancer in a dosage of 1000 ppm are added to the desired concentration if necessary.
Leaves of sweet potato were immersed in the test solution at the appropriate concentration, and the leaves were dried in air. The leaves were then placed in a petri dish having a diameter of 9 cm, and ten Spodoptera litura at third instar larvae were released therein. The petri dishes were placed in a temperature-controlled chamber at 25° C. After 2 days and 4 days more sweet potato leaves were added. After 7 days, the number of dead larvae was counted to calculate the insecticidal activity. An insecticidal activity of 100% means that all larvae were killed, whereas an insecticidal activity of 0% means that no larva was killed. In the current test, the results of two petri dishes for each treatment were averaged.

For data set [7], the system named is Musca domestica. The experiment in a line: Test against Musca domestica. To be noted: application rate 100 ppm; after 2 days. The method, then:
as §1
To produce a suitable preparation of active compound, 10 mg of active compound are dissolved in 0.5 ml solvent, and the concentrate is diluted with water to the desired concentration. Prior to the assay, a piece of kitchen sponge is soaked with a mixture of sugar and compound solution and placed into a container. 10 adults (Musca domestica) are placed into the container and closed with a perforated lid. After 2 days mortality in % is determined. 100% means that all the flies have been killed; 0% means that none of the flies have been killed.

Data set [8] has as its system green peach aphids (Myzus persicae). The experiment in a line: Myzus persicae spray test (MYZUPE). The note with it: after 6 days. The method, then: as §2, §3, §4, §5
1 day before treatment, green peach aphids (Myzus persicae) are inoculated onto the testing plants, about 50 heads per leaf, 100 for 1 pot. A paper label is placed on each pot. Solutions are sprayed directly onto both insects and plants. After drying, the pots are placed in the greenhouse at 20° C.-25° C. After 6 days mortality in % is determined. An insecticidal activity of 100% means that all aphids were killed, whereas an insecticidal activity of 0% means that no aphid was killed.

[9] abbreviates: active compound concentration 4 ppm.
The mark [10] stands for this setting: active compound concentration 20 ppm.
[11] abbreviates: active compound concentration 100 ppm.

Consider `CCC(=O)NCc1ccc(N2CCC(c3cc(C(F)(F)F)cc(C(F)(F)F)c3)(C(F)(F)F)C2O)cc1C(F)(F)F` (mixture of isomers) [A1-57], for which, in data set [1] (setting [9]), the acaricidal activity amounted to 100%. For the same compound, in data set [2] (setting [9]), the insecticidal activity is 100%. In addition, in data set [3] (setting [9]), the “insecticidal activity (pesticidal ratio)” value is 100%. In addition, the “insecticidal activity (by feeding damage degree)” value in data set [4] (setting [10]) is recorded as 100%. In data set [5], the “activity (mortality)” value was found to be 90%.

In the case of `O=C(NCc1ccc(N2CCC(c3cc(Cl)cc(Cl)c3)(C(F)(F)F)C2O)cc1Br)C1CC1` (mixture of isomers) [A1-110], the insecticidal activity in data set [6] (setting [9]) and in data set [2] (setting [10]) was 100% in each case. This compound returned an acaricidal activity in data set [1] (setting [9]) of 100%. Besides, the “insecticidal activity (by feeding damage degree)” value in data set [4] (setting [10]) is recorded as 98%. Besides, the “activity (mortality)” value in data set [5] turned out to be 90%.

Consider `O=C(NCc1ccc(N2CCC(c3cc(Cl)c(Cl)c(Cl)c3)(C(F)(F)F)C2O)cc1I)C1CC1` (mixture of isomers) [A1-176], for which the acaricidal activity in data set [1] (setting [9]) and in data set [1] (setting [10]) was 100% in each case. In data set [2] (setting [10]), the insecticidal activity is reported as 100%. The “insecticidal activity (pesticidal ratio)” value in data set [3] (setting [9]) and in data set [3] (setting [10]) was 100% each time. In addition, the “insecticidal activity (by feeding damage degree)” value in data set [4] (setting [10]) was 90%. Moreover, in data set [7], the “activity (mortality)” value came to 80%.

Consider `O=C(NCc1ccc(N2CCC(c3cc(F)cc(Cl)c3)(C(F)(F)F)C2O)nc1C(F)(F)F)C1CC1` (mixture of isomers) [A3-170], for which the insecticidal activity in data set [6] (setting [9]) and in data set [2] (setting [10]) was 100% in each case. In data set [1] (setting [10]), this compound came in with an acaricidal activity of 100%. In addition, the “activity (mortality)” value in data set [7] worked out at 90%.

Take `O=C(NCc1ccc(N2CCC(c3cc(Cl)c(F)c(Cl)c3F)(C(F)(F)F)C2O)nc1C(F)(F)F)C1CC1` (mixture of isomers) [A3-214]: the acaricidal activity in data set [1] (setting [9]) and in data set [1] (setting [10]) was 100% each time. Further, the insecticidal activity in data set [2] (setting [9]) and in data set [2] (setting [10]) was 100% each time. Also, the “insecticidal activity (pesticidal ratio)” value in data set [3] (setting [9]) and in data set [3] (setting [10]) was 100% throughout. In addition, in data set [8] (setting [10]), the “insecticidal activity (mortality)” value was determined as 100%. Also, the “insecticidal activity (by feeding damage degree)” value in data set [4] (setting [9]) is given as 90%.

Take `O=C(NCc1ccc(N2CCC(c3cc(Br)cc(Br)c3)(C(F)(F)F)C2O)cc1C(F)(F)F)C1CC1` (centres unmarked) [A1-253]: the acaricidal activity in data set [1] (setting [9]) and in data set [1] (setting [10]) was 100% throughout. The insecticidal activity in data set [2] (setting [9]) and in data set [2] (setting [10]) was 100% throughout. Further, the “insecticidal activity (pesticidal ratio)” value in data set [3] (setting [9]) and in data set [3] (setting [10]) was 100% each time. Moreover, the “insecticidal activity (by feeding damage degree)” value in data set [4] (setting [10]) is given as 90%. In addition, the “activity (mortality)” value in data set [7] is listed as 90%.

`CC(=O)NCc1ccc(N2CCC(c3cc(Cl)c(F)c(Cl)c3F)(C(F)(F)F)C2O)cc1C(F)(F)F` (centres unmarked) [A1-282]: the insecticidal activity in data set [6] (setting [9]) and in data set [2] (setting [10]) was 100% in each case. Further, the acaricidal activity in data set [1] (setting [9]) came out at 100%. Moreover, the “activity (mortality)” value in data set [5] was 95%.

Take `CCC(=O)NCc1ccc(N2CCC(c3cc(Cl)c(Cl)c(Cl)c3)(C(F)(F)F)C2O)nc1Br` (centres unmarked) [A3-112]: the acaricidal activity in data set [1] (setting [10]) is on record as 100%. This compound also showed an insecticidal activity in data set [2] (setting [10]) of 100%. Moreover, the “insecticidal activity (pesticidal ratio)” value in data set [3] (setting [10]) was found to be 100%. Also, the “activity (mortality)” value in data set [7] was determined as 90%.

In data set [1] (setting [10]), `CCC(=O)NCc1cnc(N2CCC(c3cc(Cl)c(Cl)c(Cl)c3)(C(F)(F)F)C2O)nc1C(F)(F)F` (centres unmarked) [A4-13] yielded an acaricidal activity of 100%. Moreover, the “insecticidal activity (pesticidal ratio)” value in data set [3] (setting [10]) turned out to be 100%. In addition, in data set [8] (setting [11]), the “insecticidal activity (mortality)” value came out at 90%. For the same compound, the “insecticidal activity (by feeding damage degree)” value in data set [4] (setting [10]) and in data set [4] (setting [11]) was 98% each time.

Regarding `O=C(NCc1ccc(N2CC(c3cc(C(F)(F)F)cc(C(F)(F)F)c3)(C(F)(F)F)CC2=O)nc1C(F)(F)F)C1CC1` (centres unmarked) [C3-27], the insecticidal activity in data set [6] (setting [10]) stood at 100%. Besides, the “insecticidal activity (pesticidal ratio)” value in data set [3] (setting [10]) turned out to be 100%. In addition, the “activity (mortality)” value in data set [7] is on record as 90%.
